Laboratory results reported in patent US12590126B2, “Compounds for selective disruption of protein-protein interactions” (SyntheX, Inc., priority 2017, dated 2026).
Where no end group is shown, it is not given here. [ ]: non-standard residue; d: D form. The star is where a group is joined. C6_5FAM = 5-carboxyfluorescein (5FAM) label attached via a 6-carbon linker to the lysine epsilon amino group, O=C(NCCCCCC(=O)*)c1ccc2c(c1)C(=O)OC21c2ccc(O)cc2Oc2cc(O)ccc21; 2Nal = N[C@@H](Cc1ccc2ccccc2c1)C(=O)O; dNle = CCCC[C@@H](N)C(=O)O

tested on: SSP-25 cells; assay: xCELLigence cell death assay in SSP-25 cells (cellular assay for RAD51 inhibition); type: cell-based; conditions: concentration gradient added at 20 hour mark, only values with R^>0.85 shown
Procedure: The efficacy of the peptides described herein was assessed by their ability to cause death in SSP-25 cells, which have amplification of RAD51 and are dependent on its activity.
First, 5,000 SSP25 cells were plated, and adherence and growth was measured for 20 hours using live measurements of current impedance through the plate using the xCELLigence™ instrument. At the 20 hour mark, a concentration gradient of each compound or a PBS control was added to the SSP-25 cells, which were cultured in […] RMPI media with 10% FBS. […] Only values with confidence and R^>0.85 are shown.

Row | Molecule | IC50 [µM]
1 | Ac-lvrsvGlrrrrrrrr-NH2 (Ac-[dL][dV][dR][dS][dV]G[dL][dR][dR][dR][dR][dR][dR][dR][dR]-NH2; SMILES CC(=O)N[C@H](CC(C)C)C(=O)N[C@@H](C(=O)N[C@H](CCCNC(=N)N)C(=O)N[C@H](CO)C(=O)N[C@@H](C(=O)NCC(=O)N[C@H](CC(C)C)C(=O)N[C@H](CCCNC(=N)N)C(=O)N[C@H](CCCNC(=N)N)C(=O)N[C@H](CCCNC(=N)N)C(=O)N[C@H](CCCNC(=N)N)C(=O)N[C@H](CCCNC(=N)N)C(=O)N[C@H](CCCNC(=N)N)C(=O)N[C@H](CCCNC(=N)N)C(=O)N[C@H](CCCNC(=N)N)C(N)=O)C(C)C)C(C)C) [Compound 5] | 35
2 | Ac-lmrsvrlrvGlrr-NH2 (Ac-[dL][dM][dR][dS][dV][dR][dL][dR][dV]G[dL][dR][dR]-NH2; SMILES CSCC[C@@H](NC(=O)[C@@H](CC(C)C)NC(C)=O)C(=O)N[C@H](CCCNC(=N)N)C(=O)N[C@H](CO)C(=O)N[C@@H](C(=O)N[C@H](CCCNC(=N)N)C(=O)N[C@H](CC(C)C)C(=O)N[C@H](CCCNC(=N)N)C(=O)N[C@@H](C(=O)NCC(=O)N[C@H](CC(C)C)C(=O)N[C@H](CCCNC(=N)N)C(=O)N[C@H](CCCNC(=N)N)C(N)=O)C(C)C)C(C)C) [Compound 4] | 67
3 | Ac-l{d-norLeucine}rGvrlrvGlrkrrrrrGΦ-NH2 (Ac-[dL][dNle][dR]G[dV][dR][dL][dR][dV]G[dL][dR][dK][dR][dR][dR][dR][dR]G[2Nal]-NH2; SMILES CCCC[C@@H](NC(=O)[C@@H](CC(C)C)NC(C)=O)C(=O)N[C@H](CCCNC(=N)N)C(=O)NCC(=O)N[C@@H](C(=O)N[C@H](CCCNC(=N)N)C(=O)N[C@H](CC(C)C)C(=O)N[C@H](CCCNC(=N)N)C(=O)N[C@@H](C(=O)NCC(=O)N[C@H](CC(C)C)C(=O)N[C@H](CCCNC(=N)N)C(=O)N[C@H](CCCCN)C(=O)N[C@H](CCCNC(=N)N)C(=O)N[C@H](CCCNC(=N)N)C(=O)N[C@H](CCCNC(=N)N)C(=O)N[C@H](CCCNC(=N)N)C(=O)N[C@H](CCCNC(=N)N)C(=O)NCC(=O)N[C@@H](Cc1ccc2ccccc2c1)C(N)=O)C(C)C)C(C)C) [Compound 12] | 17
4 | Ac-l{d-norLeucine}rsrrlvrGlrkrrrrrGΦ-NH2 [Compound 14] | 3500
5 | Ac-rrrrrraGphlrkvralrslGlrlaq-NH2 (Ac-[dR][dR][dR][dR][dR][dR][dA]G[dP][dH][dL][dR][dK][dV][dR][dA][dL][dR][dS][dL]G[dL][dR][dL][dA][dQ]-NH2; SMILES CC(=O)N[C@H](CCCNC(=N)N)C(=O)N[C@H](CCCNC(=N)N)C(=O)N[C@H](CCCNC(=N)N)C(=O)N[C@H](CCCNC(=N)N)C(=O)N[C@H](CCCNC(=N)N)C(=O)N[C@H](CCCNC(=N)N)C(=O)N[C@H](C)C(=O)NCC(=O)N1CCC[C@@H]1C(=O)N[C@H](Cc1c[nH]cn1)C(=O)N[C@H](CC(C)C)C(=O)N[C@H](CCCNC(=N)N)C(=O)N[C@H](CCCCN)C(=O)N[C@@H](C(=O)N[C@H](CCCNC(=N)N)C(=O)N[C@H](C)C(=O)N[C@H](CC(C)C)C(=O)N[C@H](CCCNC(=N)N)C(=O)N[C@H](CO)C(=O)N[C@H](CC(C)C)C(=O)NCC(=O)N[C@H](CC(C)C)C(=O)N[C@H](CCCNC(=N)N)C(=O)N[C@H](CC(C)C)C(=O)N[C@H](C)C(=O)N[C@H](CCC(N)=O)C(N)=O)C(C)C) [Compound 6] | 417
6 | Ac-l{d-norLeucine}rsvrlrvGlrkrrrrrrr-NH2 (Ac-[dL][dNle][dR][dS][dV][dR][dL][dR][dV]G[dL][dR][dK][dR][dR][dR][dR][dR][dR][dR]-NH2; SMILES CCCC[C@@H](NC(=O)[C@@H](CC(C)C)NC(C)=O)C(=O)N[C@H](CCCNC(=N)N)C(=O)N[C@H](CO)C(=O)N[C@@H](C(=O)N[C@H](CCCNC(=N)N)C(=O)N[C@H](CC(C)C)C(=O)N[C@H](CCCNC(=N)N)C(=O)N[C@@H](C(=O)NCC(=O)N[C@H](CC(C)C)C(=O)N[C@H](CCCNC(=N)N)C(=O)N[C@H](CCCCN)C(=O)N[C@H](CCCNC(=N)N)C(=O)N[C@H](CCCNC(=N)N)C(=O)N[C@H](CCCNC(=N)N)C(=O)N[C@H](CCCNC(=N)N)C(=O)N[C@H](CCCNC(=N)N)C(=O)N[C@H](CCCNC(=N)N)C(=O)N[C@H](CCCNC(=N)N)C(N)=O)C(C)C)C(C)C) [Compound 9] | 20
7 | Ac-lmrsvrlrvGlrkaG: : : (cFΦR4) (Ac-[dL][dM][dR][dS][dV][dR][dL][dR][dV]G[dL][dR][dK][dA]GF[2Nal]RRRRQ; not fully specified (bridges); printed as Ac-lmrsvrlrvGlrkaG: : : (cFΦR4); also: core joined by ':::' to cyclo(FΦRRRRQ), junction not defined) [Compound 3] | 7.3
8 | Ac-lmrsvrlrvGlrkrrrrrrrk(C6_5FAM)-NH2 (Ac-[dL][dM][dR][dS][dV][dR][dL][dR][dV]G[dL][dR][dK][dR][dR][dR][dR][dR][dR][dR][dK](C6_5FAM)-NH2; SMILES CSCC[C@@H](NC(=O)[C@@H](CC(C)C)NC(C)=O)C(=O)N[C@H](CCCNC(=N)N)C(=O)N[C@H](CO)C(=O)N[C@@H](C(=O)N[C@H](CCCNC(=N)N)C(=O)N[C@H](CC(C)C)C(=O)N[C@H](CCCNC(=N)N)C(=O)N[C@@H](C(=O)NCC(=O)N[C@H](CC(C)C)C(=O)N[C@H](CCCNC(=N)N)C(=O)N[C@H](CCCCN)C(=O)N[C@H](CCCNC(=N)N)C(=O)N[C@H](CCCNC(=N)N)C(=O)N[C@H](CCCNC(=N)N)C(=O)N[C@H](CCCNC(=N)N)C(=O)N[C@H](CCCNC(=N)N)C(=O)N[C@H](CCCNC(=N)N)C(=O)N[C@H](CCCNC(=N)N)C(=O)N[C@H](CCCCNC(=O)CCCCCNC(=O)c1ccc2c(c1)C(=O)OC21c2ccc(O)cc2Oc2cc(O)ccc21)C(N)=O)C(C)C)C(C)C) [Compound 13] | 10
9 | Ac-l{d-norLeucine}rsvrlr[d-norLeucine]GlrkrrrrrGΦ-NH2 (Ac-[dL][dNle][dR][dS][dV][dR][dL][dR][dNle]G[dL][dR][dK][dR][dR][dR][dR][dR]G[2Nal]-NH2; SMILES CCCC[C@@H](NC(=O)[C@@H](CCCNC(=N)N)NC(=O)[C@@H](CC(C)C)NC(=O)[C@@H](CCCNC(=N)N)NC(=O)[C@H](NC(=O)[C@@H](CO)NC(=O)[C@@H](CCCNC(=N)N)NC(=O)[C@@H](CCCC)NC(=O)[C@@H](CC(C)C)NC(C)=O)C(C)C)C(=O)NCC(=O)N[C@H](CC(C)C)C(=O)N[C@H](CCCNC(=N)N)C(=O)N[C@H](CCCCN)C(=O)N[C@H](CCCNC(=N)N)C(=O)N[C@H](CCCNC(=N)N)C(=O)N[C@H](CCCNC(=N)N)C(=O)N[C@H](CCCNC(=N)N)C(=O)N[C@H](CCCNC(=N)N)C(=O)NCC(=O)N[C@@H](Cc1ccc2ccccc2c1)C(N)=O) [Compound 16] | 43
10 | Ac-l{d-norLeucine}rGvrlrvGlrkrrrrrrr-NH2 (Ac-[dL][dNle][dR]G[dV][dR][dL][dR][dV]G[dL][dR][dK][dR][dR][dR][dR][dR][dR][dR]-NH2; SMILES CCCC[C@@H](NC(=O)[C@@H](CC(C)C)NC(C)=O)C(=O)N[C@H](CCCNC(=N)N)C(=O)NCC(=O)N[C@@H](C(=O)N[C@H](CCCNC(=N)N)C(=O)N[C@H](CC(C)C)C(=O)N[C@H](CCCNC(=N)N)C(=O)N[C@@H](C(=O)NCC(=O)N[C@H](CC(C)C)C(=O)N[C@H](CCCNC(=N)N)C(=O)N[C@H](CCCCN)C(=O)N[C@H](CCCNC(=N)N)C(=O)N[C@H](CCCNC(=N)N)C(=O)N[C@H](CCCNC(=N)N)C(=O)N[C@H](CCCNC(=N)N)C(=O)N[C@H](CCCNC(=N)N)C(=O)N[C@H](CCCNC(=N)N)C(=O)N[C@H](CCCNC(=N)N)C(N)=O)C(C)C)C(C)C) [Compound 10] | 13
11 | Ac-l{d-norLeucine}rGvrlrvGlrkrrrrGy-NH2 (Ac-[dL][dNle][dR]G[dV][dR][dL][dR][dV]G[dL][dR][dK][dR][dR][dR][dR]G[dY]-NH2; SMILES CCCC[C@@H](NC(=O)[C@@H](CC(C)C)NC(C)=O)C(=O)N[C@H](CCCNC(=N)N)C(=O)NCC(=O)N[C@@H](C(=O)N[C@H](CCCNC(=N)N)C(=O)N[C@H](CC(C)C)C(=O)N[C@H](CCCNC(=N)N)C(=O)N[C@@H](C(=O)NCC(=O)N[C@H](CC(C)C)C(=O)N[C@H](CCCNC(=N)N)C(=O)N[C@H](CCCCN)C(=O)N[C@H](CCCNC(=N)N)C(=O)N[C@H](CCCNC(=N)N)C(=O)N[C@H](CCCNC(=N)N)C(=O)N[C@H](CCCNC(=N)N)C(=O)NCC(=O)N[C@H](Cc1ccc(O)cc1)C(N)=O)C(C)C)C(C)C) [Compound 11] | 9

tested on: fresh human RBCs; assay: not given; type: cell-based; conditions: red cells of human, 1 h, 250
Procedure: To assess the nonspecific lytic properties of each compounds disclosed herein, each mentioned compound was tested for hemolytic properties against fresh human RBCs. Briefly, donor blood was drawn into a K2EDTA anticoagulant tube from multiple O+ donors. The blood was washed 3 times in PBS. RBCs were diluted to 2% in PBS and compounds were added at various concentrations. Samples were incubated at 37 C for 1 hr, then centrifuged at 2200 rpm for 5 min. Supernatants were measured for absorbance at 450 nm or 405 nm. The percentage hemolysis was calculated as lysis relative to 1% Triton X-100 incubation.

Row | Molecule | % Hemolysis (250 uM) [%]
12 | CCCC[C@@H](NC(=O)[C@@H](CC(C)C)NC(=O)CN(C)S(=O)(=O)c1cccc2c(N(C)C)cccc12)C(=O)N[C@H](CCCNC(=N)N)C(=O)N[C@H](CO)C(=O)N[C@@H](C(=O)N[C@H](CCCNC(=N)N)C(=O)N[C@H](CC(C)C)C(=O)N[C@H](CCCNC(=N)N)C(=O)N[C@@H](C(=O)NCC(=O)N[C@H](CC(C)C)C(=O)N[C@H](CCCNC(=N)N)C(=O)N[C@H](CCCNC(=N)N)C(=O)N[C@H](CCCNC(=N)N)C(=O)N[C@H](CCCNC(=N)N)C(=O)N[C@H](CCCNC(=N)N)C(=O)N[C@H](CCCNC(=N)N)C(=O)N(C)CC(=O)N(C)CC(=O)OC)C(C)C)C(C)C [Compound 20, DANSYL-Sarcosine-l{d-norLeucine}rsvrlrvGlrrrrrr-sarcosine-sarcosine-OMe] | 84
